Results: patent US20230413808A1, “Bioactive complexes” (priority 2020, published 2023)

What was measured:
Assay type in all cases: physicochemical
[1] = Visual interaction with polyanion sodium lignosulfonate; details: visible complex formation
[2] = Visual interaction of active ingredient with polyelectrolyte PAA
Experimental: (§1) To determine interaction between polyelectrolytes (PE; Table 1) and active ingredients (AI; Table 2) aqueous stock solutions of about 200 g/L of the PE and of the active ingredients were prepared. The polyelectrolytes were diluted in water and stirred on magnetic stirrer for at least 30 minutes until a homogenous clear solution was obtained (ratios and amounts are presented in Table 4). The active ingredients were dissolved in water on magnetic stirrer or, if they weren't water soluble, suspended in water and milled by adding glass beads (1 mm) in a stainless steel metal beaker until they reach a volume-based average particle size below 20 μm (90% of particles below 20 μm), as determined by laser diffraction. After that the mixture was filtered with a sieve to remove glass beads and the filtrate was used for further analysis.
(§2) A polyelectrolyte solution, PAA or chitosan, was added to a 100-150 mL glass beaker, followed by water and an active ingredient solution/suspension. The mixture was stirred for at least 4 hours, and samples were observed after at least 16 hours. The visual observable interactions were divided into five categories (see Table 3). The categories were chosen by comparison to a blank sample containing the same concentration of active ingredient in water but without polyelectrolyte. […] Interactions were studied over a large range of active ingredient to polyelectrolyte ratios, including 10.000:1 (w/w), 1000:1 (w/w), 100:1 (w/w), 10:1 (w/w), 1:1 (w/w), 1:10 (w/w), 1:100 (w/w) and 1:1000) (w/w).

[3] = Humectancy assay; details: dried at 54° C., then 97% relative humidity at 25° C.; weight after/before x 100
Experimental: The complexes of the interaction assay were used to conduct a humectancy assay. […] After reweighing on an analytical balance, the trays were placed in a climate chamber and stored for at least 2 days at 54° C. or until no further weight change was observed. […] The air tight box was 20 cm×12 cm×7 cm. In the box a chicken wire construct was used to create two levels with 10-20 ml of saturated solution of dipotassium sulfate in a petri dish in a lower level, and the samples in an upper level. Boxes were located into an incubator at 25° C. The boxes were incubated for at least 5 days at 25° C. before use to allow equilibration of temperature and humidity. Hereafter, the trays were reweighed.
The change in humectancy by combining a pesticide and polyelectrolyte is expressed as percent value by multiplying the sample weight after incubation (w2) with 100 divided with the sample weight before incubation (w1) using the following equation: […]
To evaluate the effect of the interaction of the active ingredient and polyelectrolyte on humectancy (synergetic/antagonistic/no effect), the determined Humectancy of the samples containing both active ingredient and polyelectrolyte “Humectancy (blend)” was divided by the theoretical value of Humectancy of the blend provided by respective proportion (% AI; % PE) of each pesticide and polyelectrolyte using the following equation: […]
According to this formula, a positive result of more than 1 is indicative of synergy.
The complexes obtained with the method of WO2010035118, with both ratios of 2:1 and 1:5 (PAA:AI) were tested for humectancy. […] For each sample, the test was carried in triplicate.
For each sample, the test was carried in triplicate.

[4] = Visual interaction of active ingredient with chitosan; design: key to Visual observation category, Active ingredient: chitosan: P: Formation of a precipitate; G: Formation of a gel; C: Formation of a coacervate; V: Increase/decrease of the sediment volume; S: Decrease of solid by increase of solved active ingredient; No visual observable interaction
Experimental: as §1, §2

[5] = ratio active ingredient:PAA 1.000:1 (w/w)
[6] = ratio active ingredient:PAA 1:10 (w/w)
[7] = ratio active ingredient:PAA 1:100 (w/w)
[8] = ratio active ingredient:PAA 10.000:1 (w/w)
[9] = ratio active ingredient:PAA 100:1 (w/w)
[10] = ratio active ingredient:PAA 1:1000 (w/w)
[11] = ratio active ingredient:chitosan 1.000:1 (w/w)
[12] = ratio active ingredient:chitosan 1:1 (w/w)
[13] = ratio active ingredient:chitosan 1:10 (w/w)
[14] = ratio active ingredient:chitosan 1:100 (w/w)
[15] = ratio active ingredient:chitosan 2:1 (w/w)
[16] = ratio active ingredient:chitosan 5:1 (w/w)
[17] = ratio active ingredient:chitosan 10.000:1 (w/w)
[18] = ratio active ingredient:chitosan 10:1 (w/w)
[19] = ratio active ingredient:chitosan 100:1 (w/w)
[20] = ratio active ingredient:PAA 1:1 (w/w)

## O=[PH]([O-])[O-].[K+].[K+] [K2HPO3]
[1]
  Interaction with the polyanion sodium lignosulfonate: did not form a visible complex
[2]; [5]
  Visual observation category, Active ingredient: PAA: N
[2]; [6]
  Visual observation category, Active ingredient: PAA: N
[2]; [7]
  Visual observation category, Active ingredient: PAA: N
[2]; [8]
  Visual observation category, Active ingredient: PAA: N
[2]; [9]
  Visual observation category, Active ingredient: PAA: N

## O=C1c2ccccc2C(=O)N1SC(Cl)(Cl)Cl [folpet, N-(trichloromethylthio)phthalimide]
[2]
  Interaction with the polycation PAA: interacts over a large range of ratio's

## CNC(=N[N+](=O)[O-])NCc1cnc(Cl)s1 [Clothianidin, 1-[(2-chloro-1,3-thiazol-5-yl)methyl]-3-methyl-2-nitroguanidine]
[2]; [6]
  Visual observation category, Active ingredient: PAA: N
[2]; [7]
  Visual observation category, Active ingredient: PAA: N
[2]; [10]
  Visual observation category, Active ingredient: PAA: N
[2]; [8]
  Visual observation category, Active ingredient: PAA: N
[3]
  Humectancy: 120.0%

## O=C(O)COc1ccc(Cl)cc1Cl [2,4D, 2-(2,4-dichlorophenoxy)acetic acid]
[1]
  Interaction with the polyanion sodium lignosulfonate: did not form a visible complex
[4]; [11]
  Visual observation category, Active ingredient: chitosan: N
[4]; [12]
  Visual observation category, Active ingredient: chitosan: P
[4]; [13]
  Visual observation category, Active ingredient: chitosan: N
[4]; [14]
  Visual observation category, Active ingredient: chitosan: N
[4]; [15]
  Visual observation category, Active ingredient: chitosan: P
[4]; [16]
  Visual observation category, Active ingredient: chitosan: P
[4]; [17]
  Visual observation category, Active ingredient: chitosan: N
[4]; [18]
  Visual observation category, Active ingredient: chitosan: P
[4]; [19]
  Visual observation category, Active ingredient: chitosan: P
[2]; [20]
  Visual observation category, Active ingredient: PAA: G/P
[2]; [10]
  Visual observation category, Active ingredient: PAA: N
[2]; [8]
  Visual observation category, Active ingredient: PAA: N
[3]
  Humectancy: 212.7%

## O=C(O)[C@@H]1CCCN1 [Proline]
[2]; [5]
  Visual observation category, Active ingredient: PAA: N
[2]; [20]
  Visual observation category, Active ingredient: PAA: N
[2]; [6]
  Visual observation category, Active ingredient: PAA: N
[2]; [7]
  Visual observation category, Active ingredient: PAA: N
[2]; [10]
  Visual observation category, Active ingredient: PAA: N
[2]; [8]
  Visual observation category, Active ingredient: PAA: N
[2]; ratio active ingredient:PAA 10:1 (w/w)
  Visual observation category, Active ingredient: PAA: N
[2]; [9]
  Visual observation category, Active ingredient: PAA: N

## O=[N+]([O-])/N=C1\NCCN1Cc1ccc(Cl)nc1 [Imidacloprid, (NE)-N-[1-[(6-chloropyridin-3-yl)methyl]imidazolidin-2-ylidene]nitramide]
[2]; [20]
  Visual observation category, Active ingredient: PAA: N
[2]; [6]
  Visual observation category, Active ingredient: PAA: N
[2]; [7]
  Visual observation category, Active ingredient: PAA: N
[2]; ratio active ingredient:PAA 2:1 (w/w)
  Visual observation category, Active ingredient: PAA: N
[2]; ratio active ingredient:PAA 5:1 (w/w)
  Visual observation category, Active ingredient: PAA: No
[2]; [8]
  Visual observation category, Active ingredient: PAA: N
[3]
  Humectancy: 108.4%

## CCCCCCCCC(=O)O [Pelargonic acid, nonanoic acid]
[1]
  Interaction with the polyanion sodium lignosulfonate: did not form a visible complex
[2]; [7]
  Visual observation category, Active ingredient: PAA: N
[2]; [10]
  Visual observation category, Active ingredient: PAA: N
[2]; [8]
  Visual observation category, Active ingredient: PAA: N

## COc1c(Cl)ccc(Cl)c1C(=O)O [Dicamba, 3,6-dichloro-2-methoxybenzoic acid]
[1]
  Interaction with the polyanion sodium lignosulfonate: did not form a visible complex
[4]; [11]
  Visual observation category, Active ingredient: chitosan: P
[4]; [12]
  Visual observation category, Active ingredient: chitosan: N
[4]; [13]
  Visual observation category, Active ingredient: chitosan: N
[4]; [14]
  Visual observation category, Active ingredient: chitosan: N
[4]; [15]
  Visual observation category, Active ingredient: chitosan: N
[4]; [16]
  Visual observation category, Active ingredient: chitosan: P
[4]; [17]
  Visual observation category, Active ingredient: chitosan: N
[4]; [18]
  Visual observation category, Active ingredient: chitosan: P
[4]; [19]
  Visual observation category, Active ingredient: chitosan: P
[2]; [6]
  Visual observation category, Active ingredient: PAA: N
[2]; [7]
  Visual observation category, Active ingredient: PAA: N
[2]; ratio active ingredient:PAA 100.000:1 (w/w)
  Visual observation category, Active ingredient: PAA: N

## CCO[PH](=O)O [Fosetyl Al]
[2]; [6]
  Visual observation category, Active ingredient: PAA: N
[2]; [7]
  Visual observation category, Active ingredient: PAA: N
[2]; [10]
  Visual observation category, Active ingredient: PAA: N
[2]; summary of Table 4
  Ratios at which active ingredient interacted (w/w; active ingredient:polycation): from 10.000:1 to 1:1
[3]
  Humectancy: 137.0%

## O=[PH]([O-])[O-].[Na+].[Na+] [Na2HPO3]
[1]
  Interaction with the polyanion sodium lignosulfonate: did not form a visible complex
[2]; [5]
  Visual observation category, Active ingredient: PAA: N
[2]; [6]
  Visual observation category, Active ingredient: PAA: N
[2]; [7]
  Visual observation category, Active ingredient: PAA: N
[2]; [8]
  Visual observation category, Active ingredient: PAA: N
[2]; [9]
  Visual observation category, Active ingredient: PAA: N

## C[C@@H]1C/C=C/C=C/C=C/C=C/[C@H](O[C@@H]2O[C@H](C)[C@@H](O)[C@H](N)[C@@H]2O)C[C@@H]2O[C@](O)(C[C@@H](O)C[C@H]3O[C@@H]3/C=C/C(=O)O1)C[C@H](O)[C@H]2C(=O)O [Natamycin, (1R,3S,5R,7R,8E,12R,14E,16E,18E,20E,22R,24S,25R,26S)-22-[(2R,3S,4S,5S,6R)-4-amino-3,5-dihydroxy-6-methyloxan-2-yl]oxy-1,3,26-trihydroxy-12-methyl-10-oxo-6,11,28-trioxatricyclo[22.3.1.05,7]octacosa-8,14,16,18,20-pentaene-25-carboxylic acid]
[4]
  Interaction with chitosan: interact
[2]; [5]
  Visual observation category, Active ingredient: PAA: N
[2]; [6]
  Visual observation category, Active ingredient: PAA: N
[2]; [7]
  Visual observation category, Active ingredient: PAA: N

## N.N.O=[PH](O)O [(NH4)2HPO3]
[1]
  Interaction with the polyanion sodium lignosulfonate: did not form a visible complex
[2]; [5]
  Visual observation category, Active ingredient: PAA: N
[2]; [6]
  Visual observation category, Active ingredient: PAA: N
[2]; [7]
  Visual observation category, Active ingredient: PAA: N
[2]; [8]
  Visual observation category, Active ingredient: PAA: N
[2]; [9]
  Visual observation category, Active ingredient: PAA: N
